Test [1] concerns Interferon-α. Kind of test: Induction of Interferon-α using fresh human whole blood (WB). Format: cell-based. The settings on record: three donors, overnight incubation, cytokine released as percentage of 2 μM resiquimod control, read-out: mean pEC50 for INF-α (converted). On the procedure: (§1) Assay for the Induction of Interferon-α and TNF-α Using Fresh Human Whole Blood (WB)
(§2) Compounds were prepared at 100× required concentration in DMSO in flat-bottom microtitre plates at a volume of 1.5 μL. Columns 1-10 contained a 1 in 4 serial dilution of the test compound. Included on each plate was a serial dilution of the TLR7/8 agonist resiquimod as a standard and Column 11 contained 1.5 μl of 200 μM resiquimod (giving a 2 μM final concentration, used to define the approximate maximal response to resiquimod). Each compound was assayed in duplicate for each donor.
(§3) Blood samples from three human donors were collected into sodium heparin (10 U/ml). 150 μl of whole Blood was dispensed into Col 1 to 11 of assay plates containing 1.5 μl of test compound or standard in DMSO. Plates were placed in an incubator overnight (37° C., 95% air, 5% CO2). Following the overnight incubation, plates were removed from the incubator & mixed on an orbital shaker for approximately 1 minute. 100 μl of 0.9% saline was added to each well and the plates mixed again on an orbital shaker. Plates were then centrifuged (2500 rpm, 10 mins), after which a sample of plasma was removed using a Biomek FX and assayed for both IFN-α and TNF-α using the MSD (Mesoscale Discovery) electrochemiluminescence assay platform. The IFN-α assay was carried out similarly to that described above. The TNF-α assay was carried out as per kit instructions (Cat No K111BHB).
(§4) Cytokine released was expressed as a percentage of the 2 μM resiquimod control (column 11). This percentage was plotted against compound concentration and the pEC50 for the response determined by non-linear least squares curve fitting. For the IFN-α responses, generally a 4 parameter logistic model was selected. For the TNF-α responses where a clear maximum response was obtained (i.e. a well defined plateau in the response was observed) then a 4 parameter model was generally used. […]

In test [2] the test system is TNF-α. Nature of the test: Induction of TNF-α using fresh human whole blood (WB). Format: cell-based. The settings on record: three donors, overnight incubation, cytokine released as percentage of 2 μM resiquimod control, read-out: mean pEC50 for TNF-α (converted). On the procedure:
as §1, §2, §3, §4

The values below come from US9550785B2, “Pyrrolopyrimidines as therapeutic agents for the treatment of diseases” (GlaxoSmithKline LLC, priority 2012, dated 2017).

Where a name gives a salt, the structure may show the parent alone.

Regarding `CCCCc1nc(N)c2[nH]cc(CCC3CCNCC3)c2n1` [Example 3, 2-Butyl-7-(2-(piperidin-4-yl)ethyl)-5H-pyrrolo[3,2-d]pyrimidin-4-amine], the values for the EC50 in test [1] and in test [2] were not above 0.398 µM and not above 10 µM, respectively.
For `CCCCc1nc(N)c2[nH]cc(CCCC3CCNCC3)c2n1` [Example 1, 2-Butyl-7-(3-(piperidin-4-yl)propyl)-5H-pyrrolo[3,2-d]pyrimidin-4-amine formate] the same measures were not above 0.398 µM and not above 10 µM.
For the compound `CCCCc1nc(N)c2[nH]cc(CCCC3CCN(C(C)C)CC3)c2n1` [Example 2, 2-Butyl-7-(3-(1-isopropylpiperidin-4-yl)propyl)-5H-pyrrolo[3,2-d]pyrimidin-4-amine], the figures for the EC50 in test [1] and in test [2] were not above 0.398 µM and not above 10 µM, respectively.
